# In ChEMBL document CHEMBL1133867, “Design, synthesis, and SAR of heterocycle-containing antagonists of the human CCR5 receptor for the treatment of HIV-1 infection” (Bioorg Med Chem Lett, 2001):
# Tests used:
# [1] = target: T1, C-C chemokine receptor type 3 (Homo sapiens, UniProt P51677); test: Compound was evaluated for its inhibitory activity against C-C chemokine receptor type 3
# T1 sequence (P51677 whole entry): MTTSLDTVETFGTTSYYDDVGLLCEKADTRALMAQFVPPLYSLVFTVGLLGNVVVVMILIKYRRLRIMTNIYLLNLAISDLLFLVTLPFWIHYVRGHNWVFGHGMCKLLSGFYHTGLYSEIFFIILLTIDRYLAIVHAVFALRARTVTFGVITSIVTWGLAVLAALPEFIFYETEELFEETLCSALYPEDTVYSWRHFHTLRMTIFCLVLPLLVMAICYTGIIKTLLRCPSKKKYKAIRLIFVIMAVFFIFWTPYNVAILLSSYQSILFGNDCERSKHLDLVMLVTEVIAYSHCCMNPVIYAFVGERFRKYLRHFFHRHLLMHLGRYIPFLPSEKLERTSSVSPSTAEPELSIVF
# [2] = target: T2, C-C chemokine receptor type 1 (Homo sapiens, UniProt P32246); test: Compound was evaluated for inhibitory activity against C-C chemokine receptor type 1
# T2 sequence (P32246 whole entry): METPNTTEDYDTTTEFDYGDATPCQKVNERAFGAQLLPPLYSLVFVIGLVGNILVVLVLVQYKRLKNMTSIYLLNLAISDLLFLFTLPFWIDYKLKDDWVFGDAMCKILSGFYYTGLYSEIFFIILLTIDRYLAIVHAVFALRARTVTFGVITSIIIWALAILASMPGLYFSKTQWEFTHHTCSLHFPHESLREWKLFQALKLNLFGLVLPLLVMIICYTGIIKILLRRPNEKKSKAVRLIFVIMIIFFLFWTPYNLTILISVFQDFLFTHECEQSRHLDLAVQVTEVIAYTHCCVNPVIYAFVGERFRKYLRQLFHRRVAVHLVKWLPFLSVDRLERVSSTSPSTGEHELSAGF
# [3] = target: C-X-C chemokine receptor type 4 (Homo sapiens, UniProt P61073); test: Compound was evaluated for its inhibitory activity against C-X-C chemokine receptor type 4
# [4] = target: T3, C-C chemokine receptor type 5 (Homo sapiens, UniProt P51681); test: Binding affinity against C-C chemokine receptor type 5 stably expressed in Chinese hamster ovary (CHO) cells using [125I]-MIP-1 alpha as the radioligand; assay type: cell-based
# [5] = target: C-C chemokine receptor type 2 (Homo sapiens, UniProt P41597); test: Compound was evaluated for its inhibitory activity against C-C chemokine receptor type 2
# [6] = target: T4, C-C chemokine receptor type 4 (Homo sapiens, UniProt P51679); test: Compound was evaluated for its inhibitory activity against C-C chemokine receptor type 4
# T4 sequence (P51679 whole entry): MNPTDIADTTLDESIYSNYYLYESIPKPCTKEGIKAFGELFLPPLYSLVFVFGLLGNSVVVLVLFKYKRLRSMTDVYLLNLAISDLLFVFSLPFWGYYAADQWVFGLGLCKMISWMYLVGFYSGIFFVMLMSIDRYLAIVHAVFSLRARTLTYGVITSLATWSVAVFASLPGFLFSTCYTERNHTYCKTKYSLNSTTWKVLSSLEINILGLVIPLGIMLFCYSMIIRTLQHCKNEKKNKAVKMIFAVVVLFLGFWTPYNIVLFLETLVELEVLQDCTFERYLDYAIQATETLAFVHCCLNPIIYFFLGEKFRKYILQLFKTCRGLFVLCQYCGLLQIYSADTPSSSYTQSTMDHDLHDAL
# [7] = Oral bioavailability in rat; assay type: ADME, organism-based; conditions: in vivo
# [8] = Clearance in rat.; assay type: ADME, organism-based; conditions: in vivo
# HeLa = test: Antiviral activity against HeLa Magi cells expressing both CXCR4 and CCR5 in a 48 hr single cycle HIV (BAL) infection assay; assay type: functional; conditions: Homo sapiens
# [9] = target: T3, C-C chemokine receptor type 5; test: Binding affinity against human CCR5 receptor stably expressed in Chinese hamster ovary (CHO) cells using [125I]-MIP-1 alpha as the radioligand; assay type: cell-based
# C-C chemokine receptor type 2, sequence (P41597 whole entry): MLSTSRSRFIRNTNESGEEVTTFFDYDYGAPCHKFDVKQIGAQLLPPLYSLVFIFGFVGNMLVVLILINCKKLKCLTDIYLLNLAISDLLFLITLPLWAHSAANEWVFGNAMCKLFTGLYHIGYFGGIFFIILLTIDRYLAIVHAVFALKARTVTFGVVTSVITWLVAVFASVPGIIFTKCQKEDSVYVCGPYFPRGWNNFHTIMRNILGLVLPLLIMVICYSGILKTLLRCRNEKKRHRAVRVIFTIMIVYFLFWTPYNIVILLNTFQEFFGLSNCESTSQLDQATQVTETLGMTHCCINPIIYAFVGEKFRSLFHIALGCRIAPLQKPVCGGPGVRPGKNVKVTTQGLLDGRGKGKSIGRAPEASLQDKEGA
# C-X-C chemokine receptor type 4, sequence (P61073 whole entry): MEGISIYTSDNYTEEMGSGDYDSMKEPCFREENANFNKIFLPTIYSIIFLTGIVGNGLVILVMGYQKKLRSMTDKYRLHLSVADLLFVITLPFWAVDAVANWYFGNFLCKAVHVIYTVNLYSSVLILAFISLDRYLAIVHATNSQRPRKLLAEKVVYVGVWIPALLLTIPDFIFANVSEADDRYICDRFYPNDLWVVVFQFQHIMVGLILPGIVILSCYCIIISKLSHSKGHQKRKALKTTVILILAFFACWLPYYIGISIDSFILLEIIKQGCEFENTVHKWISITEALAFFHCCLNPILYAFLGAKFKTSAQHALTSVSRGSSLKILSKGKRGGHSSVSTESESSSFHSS
# T3 sequence (P51681 whole entry): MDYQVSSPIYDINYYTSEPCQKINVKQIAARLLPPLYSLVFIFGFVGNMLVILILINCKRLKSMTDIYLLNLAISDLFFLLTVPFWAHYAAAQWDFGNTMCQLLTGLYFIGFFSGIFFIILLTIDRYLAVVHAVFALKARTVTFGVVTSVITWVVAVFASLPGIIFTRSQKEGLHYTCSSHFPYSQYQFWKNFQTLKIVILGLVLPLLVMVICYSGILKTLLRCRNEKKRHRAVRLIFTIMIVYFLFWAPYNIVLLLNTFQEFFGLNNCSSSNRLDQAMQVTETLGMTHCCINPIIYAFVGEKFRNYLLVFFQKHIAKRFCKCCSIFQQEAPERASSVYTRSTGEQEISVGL
smiles,measurement,setting,value
C=CCN(C(=O)OCc1ccccc1)C1CCN(CCC(Cn2c(CC)nc3ccccc32)c2ccccc2)CC1 (stereo not drawn),IC50,[1],> 1 µM
same,IC50,[2],> 1 µM
same,IC50,[3],> 1 µM
same,IC50,[4],0.246 µM
same,IC50,[5],> 1 µM
same,IC50,[6],> 1 µM
C=CCN(C(=O)OCc1ccccc1)C1CCN(CCC(C)(CN2C(=O)N[C@H](Cc3c[nH]c4ccccc34)C2=O)c2ccccc2)CC1 (stereo partly drawn),bioavailability,[7],1%
same,clearance,[8],84 mL/min/kg
C=CCN(C(=O)OCc1ccc([N+](=O)[O-])cc1)C1CCN(CCC(Cn2cnc(Cl)c2Cl)c2ccccc2)CC1 (stereo not drawn),IC50,[4],0.016 µM
C=CCN(C(=O)OCc1ccc([N+](=O)[O-])cc1)C1CCN(CCC(Cn2cnc([N+](=O)[O-])c2)c2ccccc2)CC1 (stereo not drawn),IC50,[4],0.015 µM
C=CCN(C(=O)OCc1ccccc1)C1CCN(CCC(Cn2cnc3ccccc32)c2ccccc2)CC1 (stereo not drawn),IC50,[1],> 1 µM
same,IC50,[2],> 1 µM
same,IC50,[3],> 1 µM
same,IC50,[4],0.025 µM
same,IC50,[5],> 1 µM
same,IC50,[6],> 1 µM
same,IC90,HeLa,> 3 µM
C=CCN(C(=O)OCc1ccc([N+](=O)[O-])cc1)C1CCN(CCC(Cn2ncc3ccccc32)c2ccccc2)CC1 (stereo not drawn),IC50,[4],0.015 µM
C=CCN(C(=O)OCc1ccc([N+](=O)[O-])cc1)C1CCN(CCC(Cn2cncn2)c2ccccc2)CC1 (stereo not drawn),IC50,[4],0.028 µM
CN(C[C@@H](CCN1CCC2(CC1)C[S+]([O-])c1ccccc12)c1cccc(Cl)c1)S(=O)(=O)c1ccccc1 (stereo partly drawn),IC50,[9],0.035 µM
C=CCN(C(=O)OCc1ccc([N+](=O)[O-])cc1)C1CCN(CCC(Cn2cnc(CC#N)c2)c2ccccc2)CC1 (stereo not drawn),IC50,[4],0.015 µM
"C=CCN(C(=O)OCc1ccc([N+](=O)[O-])cc1)C1CCN(CCC(C)(c2ccccc2)C2c3ccccc3C(=O)N2CC)CC1 (single isomer, unassigned; form 2)",IC50,[4],0.01 µM
C=CCN(C(=O)OCc1ccccc1)C1CCN(CCC(C)(c2ccccc2)C2Nc3ccccc3S(=O)(=O)N2)CC1 (stereo in doubt),IC50,[4],0.018 µM
"C=CCN(C(=O)OCc1ccc([N+](=O)[O-])cc1)C1CCN(CCC(C)(c2ccccc2)C2c3ccccc3C(=O)N2CC)CC1 (single isomer, unassigned; form 1)",IC50,[4],0.018 µM
C=CCN(C(=O)OCc1ccc([N+](=O)[O-])cc1)C1CCN(CCC(Cn2nnnc2-c2ccccc2)c2ccccc2)CC1 (stereo not drawn),IC50,[4],0.335 µM
"C=CCN(C(=O)OCc1ccccc1)C1CCN(CCC(C)(c2ccccc2)C2Nc3ccccc3S(=O)(=O)N2)CC1 (single isomer, unassigned)",IC50,[4],0.055 µM
C=CCN(C(=O)OCc1ccc([N+](=O)[O-])cc1)C1CCN(CCC(Cn2cnc(-c3ccccc3)c2)c2ccccc2)CC1 (stereo not drawn),IC50,[4],0.023 µM
C=CCN(C(=O)OCc1ccc([N+](=O)[O-])cc1)C1CCN(CCC(Cn2c(CC)nc3ccccc32)c2ccccc2)CC1 (stereo not drawn),IC50,[1],> 1 µM
same,IC50,[2],> 1 µM
same,IC50,[3],> 1 µM
same,IC50,[4],0.048 µM
same,IC50,[5],> 1 µM
same,IC50,[6],> 1 µM
same,IC90,HeLa,3 µM
C=CCN(C(=O)OCc1ccccc1)C1CCN(CCC(C)(Cn2cnc3ccccc32)c2ccccc2)CC1 (stereo not drawn),IC50,[1],> 1 µM
same,IC50,[2],> 1 µM
same,IC50,[3],> 1 µM
same,IC50,[4],0.112 µM
same,IC50,[5],> 1 µM
same,IC50,[6],> 1 µM
C=CCN(C(=O)OCc1ccc([N+](=O)[O-])cc1)C1CCN(CCC(Cn2cc3ccccc3n2)c2ccccc2)CC1 (stereo not drawn),IC50,[4],0.027 µM
C=CCN(C(=O)OCc1ccc([N+](=O)[O-])cc1)C1CCN(CCC(Cn2nnc(-c3ccccc3)n2)c2ccccc2)CC1 (stereo not drawn),IC50,[4],0.111 µM
C=CCN(C(=O)OCc1ccc([N+](=O)[O-])cc1)C1CCN(CCC(Cn2cnc3ccccc32)c2ccccc2)CC1 (stereo not drawn),bioavailability,[7],14%
same,clearance,[8],49 mL/min/kg
same,IC50,[1],> 1 µM
same,IC50,[2],> 1 µM
same,IC50,[3],> 1 µM
same,IC50,[4],0.004 µM
same,IC50,[5],> 1 µM
same,IC50,[6],> 1 µM
same,IC90,HeLa,1 µM
C=CCN(C(=O)OCc1ccc([N+](=O)[O-])cc1)C1CCN(CCC(C)(Cn2cnc3ccccc32)c2ccccc2)CC1 (stereo not drawn),IC50,[1],> 1 µM
same,IC50,[2],> 1 µM
same,IC50,[3],> 1 µM
same,IC50,[4],0.01 µM
same,IC50,[5],> 1 µM
same,IC50,[6],> 1 µM
same,IC90,HeLa,1 µM
